According to PMC7438494 (Communications Biology, 2020):
Where two headings read alike, the source gives them in different places.

Molecular target: human ATP synthase (Homo sapiens, UniProt P00846+P05496)
Assay: biochemical
Type: biochemical

COc1nc2ccc(Br)cc2cc1[C@@H](c1ccccc1)[C@@](O)(CCN(C)C)c1cccc2ccccc12 [BDQ, Bedaquiline]
activity at 1 µM (Human Mito, 4th exp (18_12_26), BDQ 1 uM, read-out: Cyanide sensitive % activity): 8.67% | activity at 2 µM (Human Mito, 4th exp (18_12_26), BDQ 2 uM, read-out: Cyanide sensitive % activity): 2.82% | activity at 5 µM (Human Mito, 4th exp (18_12_26), BDQ 5 uM, read-out: Cyanide sensitive % activity): -2.55% | activity at 10 µM (Human Mito, 4th exp (18_12_26), BDQ 10 uM, read-out: Cyanide sensitive % activity): 0% | Cyanide sensitive (Human Mito, 5th exp (19), BDQ in DMSO, Bedaquiline 5e-5 μM, 60 min): 8.081 nmol/min/mg | Cyanide sensitive (Human Mito, 5th exp (19), BDQ in DMSO, Bedaquiline 0.0005 μM, 60 min): 7.799 nmol/min/mg | activity at 0.0005 µM (Human Mito, 5th exp (19), BDQ in DMSO, Bedaquiline 0.0005 μM, 60 min, read-out: % activity): 75.5% | Cyanide sensitive (Human Mito, 5th exp (19), BDQ in DMSO, Bedaquiline 0.005 μM, 60 min): 7.932 nmol/min/mg | activity at 0.005 µM (Human Mito, 5th exp (19), BDQ in DMSO, Bedaquiline 0.005 μM, 60 min, read-out: % activity): 71.9% | Cyanide sensitive (Human Mito, 5th exp (19), BDQ in DMSO, Bedaquiline 0.1 μM, 60 min): 7.371 nmol/min/mg | activity at 0.1 µM (Human Mito, 5th exp (19), BDQ in DMSO, Bedaquiline 0.1 μM, 60 min, read-out: % activity): 76.1% | Cyanide sensitive (Human Mito, 5th exp (19), BDQ in DMSO, Bedaquiline 0.2 μM, 60 min): 5.1485 nmol/min/mg | activity at 0.2 µM (Human Mito, 5th exp (19), BDQ in DMSO, Bedaquiline 0.2 μM, 60 min, read-out: % activity): 61.2% | Cyanide sensitive (Human Mito, 5th exp (19), BDQ in DMSO, Bedaquiline 0.5 μM, 60 min): 7.123 nmol/min/mg | activity at 0.5 µM (Human Mito, 5th exp (19), BDQ in DMSO, Bedaquiline 0.5 μM, 60 min, read-out: % activity): 73.7% | Cyanide sensitive (Human Mito, 5th exp (19), BDQ in DMSO, Bedaquiline 0.65 μM, 60 min): 5.712 nmol/min/mg | activity at 0.65 µM (Human Mito, 5th exp (19), BDQ in DMSO, Bedaquiline 0.65 μM, 60 min, read-out: % activity): 69.7% | Cyanide sensitive (Human Mito, 5th exp (19), BDQ in DMSO, Bedaquiline 1 μM, 60 min): -0.04135 nmol/min/mg | activity at 1 µM (Human Mito, 5th exp (19), BDQ in DMSO, Bedaquiline 1 μM, 60 min, read-out: % activity): 11.1% | Cyanide sensitive (Human Mito, 5th exp (19), BDQ in DMSO, Bedaquiline 2 μM, 60 min): -0.9975 nmol/min/mg | activity at 2 µM (Human Mito, 5th exp (19), BDQ in DMSO, Bedaquiline 2 μM, 60 min, read-out: % activity): 5% | Cyanide sensitive (Human Mito, 5th exp (19), BDQ in DMSO, Bedaquiline 5 μM, 60 min): -2.758 nmol/min/mg | activity at 5 µM (Human Mito, 5th exp (19), BDQ in DMSO, Bedaquiline 5 μM, 60 min, read-out: % activity): 0.69% | Cyanide sensitive (Human Mito, 5th exp (19), BDQ in DMSO, Bedaquiline 10 μM, 60 min): -0.848 nmol/min/mg | activity at 10 µM (Human Mito, 5th exp (19), BDQ in DMSO, Bedaquiline 10 μM, 60 min, read-out: % activity): 3.96% | activity at 0.0005 µM (Human Mito, 5th exp (19_01_02), BDQ 0.0005 uM, read-out: Cyanide sensitive % activity): 75.5% | activity at 0.005 µM (Human Mito, 5th exp (19_01_02), BDQ 0.005 uM, read-out: Cyanide sensitive % activity): 71.9% | activity at 0.1 µM (Human Mito, 5th exp (19_01_02), BDQ 0.1 uM, read-out: Cyanide sensitive % activity): 76.1% | activity at 0.2 µM (Human Mito, 5th exp (19_01_02), BDQ 0.2 uM, read-out: Cyanide sensitive % activity): 61.2% | activity at 0.5 µM (Human Mito, 5th exp (19_01_02), BDQ 0.5 uM, read-out: Cyanide sensitive % activity): 73.7% | activity at 0.65 µM (Human Mito, 5th exp (19_01_02), BDQ 0.65 uM, read-out: Cyanide sensitive % activity): 69.7% | activity at 1 µM (Human Mito, 5th exp (19_01_02), BDQ 1 uM, read-out: Cyanide sensitive % activity): 11.1% | activity at 2 µM (Human Mito, 5th exp (19_01_02), BDQ 2 uM, read-out: Cyanide sensitive % activity): 5% | activity at 5 µM (Human Mito, 5th exp (19_01_02), BDQ 5 uM, read-out: Cyanide sensitive % activity): 0.69% | activity at 10 µM (Human Mito, 5th exp (19_01_02), BDQ 10 uM, read-out: Cyanide sensitive % activity): 3.96% | Cyanide sensitive % activity, Average (Human Mito, average of experiments, BDQ 5e-6 uM): 75.05% | Cyanide sensitive % activity, Average (Human Mito, average of experiments, BDQ 5e-5 uM): 71.33% | activity at 0.0005 µM (Human Mito, average of experiments, BDQ 0.0005 uM, read-out: Cyanide sensitive % activity, Average): 78.5% | activity at 0.005 µM (Human Mito, average of experiments, BDQ 0.005 uM, read-out: Cyanide sensitive % activity, Average): 68% | activity at 0.1 µM (Human Mito, average of experiments, BDQ 0.1 uM, read-out: Cyanide sensitive % activity, Average): 70.6% | activity at 0.2 µM (Human Mito, average of experiments, BDQ 0.2 uM, read-out: Cyanide sensitive % activity, Average): 57.6% | activity at 0.5 µM (Human Mito, average of experiments, BDQ 0.5 uM, read-out: Cyanide sensitive % activity, Average): 52.1% | activity at 0.65 µM (Human Mito, average of experiments, BDQ 0.65 uM, read-out: Cyanide sensitive % activity, Average): 44.5% | activity at 0.85 µM (Human Mito, average of experiments, BDQ 0.85 uM, read-out: Cyanide sensitive % activity, Average): 27.4% | activity at 1 µM (Human Mito, average of experiments, BDQ 1 uM, read-out: Cyanide sensitive % activity, Average): 6.29% | activity at 2 µM (Human Mito, average of experiments, BDQ 2 uM, read-out: Cyanide sensitive % activity, Average): 0.46% | activity at 5 µM (Human Mito, average of experiments, BDQ 5 uM, read-out: Cyanide sensitive % activity, Average): -2% | activity at 10 µM (Human Mito, average of experiments, BDQ 10 uM, read-out: Cyanide sensitive % activity, Average): 0.62% | activity at 0.0005 µM (Human Mito, plotted duplicates, first column, BDQ 0.0005 uM, read-out: % activity): 81.5% | activity at 0.005 µM (Human Mito, plotted duplicates, first column, BDQ 0.005 uM, read-out: % activity): 88.5% | activity at 0.1 µM (Human Mito, plotted duplicates, first column, BDQ 0.1 uM, read-out: % activity): 71.2% | activity at 0.2 µM (Human Mito, plotted duplicates, first column, BDQ 0.2 uM, read-out: % activity): 59.5% | activity at 0.5 µM (Human Mito, plotted duplicates, first column, BDQ 0.5 uM, read-out: % activity): 51.2% | activity at 0.65 µM (Human Mito, plotted duplicates, first column, BDQ 0.65 uM, read-out: % activity): 37.6% | activity at 0.85 µM (Human Mito, plotted duplicates, first column, BDQ 0.85 uM, read-out: % activity): 33.1% | activity at 1 µM (Human Mito, plotted duplicates, first column, BDQ 1 uM, read-out: % activity): 8.67% | activity at 2 µM (Human Mito, plotted duplicates, first column, BDQ 2 uM, read-out: % activity): 2.82% | activity at 5 µM (Human Mito, plotted duplicates, first column, BDQ 5 uM, read-out: % activity): -2.55% | activity at 10 µM (Human Mito, plotted duplicates, first column, BDQ 10 uM, read-out: % activity): -2.1% | activity at 0.0005 µM (Human Mito, plotted duplicates, second column, BDQ 0.0005 uM, read-out: % activity): 75.5% | activity at 0.005 µM (Human Mito, plotted duplicates, second column, BDQ 0.005 uM, read-out: % activity): 71.9% | activity at 0.1 µM (Human Mito, plotted duplicates, second column, BDQ 0.1 uM, read-out: % activity): 76.1% | activity at 0.2 µM (Human Mito, plotted duplicates, second column, BDQ 0.2 uM, read-out: % activity): 61.2% | activity at 0.5 µM (Human Mito, plotted duplicates, second column, BDQ 0.5 uM, read-out: % activity): 58% | activity at 0.65 µM (Human Mito, plotted duplicates, second column, BDQ 0.65 uM, read-out: % activity): 40% | activity at 0.85 µM (Human Mito, plotted duplicates, second column, BDQ 0.85 uM, read-out: % activity): 32.5% | activity at 1 µM (Human Mito, plotted duplicates, second column, BDQ 1 uM, read-out: % activity): 11.1% | activity at 2 µM (Human Mito, plotted duplicates, second column, BDQ 2 uM, read-out: % activity): 1.13% | activity at 5 µM (Human Mito, plotted duplicates, second column, BDQ 5 uM, read-out: % activity): 0.69% | activity at 10 µM (Human Mito, plotted duplicates, second column, BDQ 10 uM, read-out: % activity): 3.96% | extent of inhibition of ATP synthesis of the human enzyme (in words): nearly completely | activity at 0.0005 µM (read-out: % activity): 89.6% | activity at 0.1 µM (read-out: % activity): 81.7% | activity at 0.2 µM (read-out: % activity): 77.1% | activity at 0.5 µM (read-out: % activity): 62.5% | activity at 0.85 µM (read-out: % activity): 54% | activity at 1 µM (read-out: % activity): 48.4% | activity at 2 µM (read-out: % activity): 45.8% | activity at 10 µM (read-out: % activity): 36.3% | inhibition at 0.2 µM (read-out: % inhibition): 22.9% | inhibition at 0.5 µM (read-out: % inhibition): 37.5% | inhibition at 1 µM (read-out: % inhibition): 57.4% | inhibition at 2 µM (read-out: % inhibition): 54.2% | inhibition at 10 µM (read-out: % inhibition): 63.7%
